Where two headings read alike, the source gives them in different places.
Experiments:
HCV replicon 1A = assay: Cell-based HCV Replicon Assay A, replicon 1A
Summary of the method: (§1)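 HCV replicon RNA levels are measured by multiplexed real-time RT-PCR, with cyclophilin as internal control, after 3 days of compound exposure. Compounds are tested in 10 serial dilutions starting between 333.3 nM and 1.667 nM, with 5% FBS in the medium.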

HCV replicon 1AY93H = assay: Cell-based HCV Replicon Assay A, replicon 1AY93H
Summary of the method: as §1

HCV replicon 2B = assay: Cell-based HCV Replicon Assay A, replicon 2B; conditions: read-out: 2B IC50, replicon 2B
Summary of the method: as §1

HCV replicon 1AQ30D = assay: Cell-based HCV Replicon Assay B, replicon 1AQ30D
Method: In an alternate assay (“Replicon Assay B”), 1000 cells were seeded per well in a 384-well collagen coated black plate from Greiner bio-one (Cat #781946) in 5% FBS. Inhibitors of this invention were added at 24 h post-seeding, and the plates were incubated for 3 days. Cells were subsequently lysed with Qiagen lysis buffer (Cat #1062731) to extract the RNA. HCV replicon RNA level was measured by real-time PCR using the RNA-to-CT kit from Applied Biosystem (Cat #4392656) and genotype-specific primers and probes. The amplicon was located within NS5B. The sequence of the PCR primers are as follows: 5B.2F, ATGGACAGGCGCCCTGA (SEQ. ID NO. 1); 5B.2R, […] (SEQ. ID NO. 2); the probe sequence was FAM-labeled CACGCCATGCGCTGCGG (SEQ. ID NO. 3). To detect genotype 1A the primer 1A F, TGCGGAACCGGTGAGTACA and 1A R, […] were used; the probe sequence was FAM-[…].
The real-time RT-PCR reactions were run on ABI PRISM 7900HT or Viia7 Sequence Detection System using the following program: 48° C. for 30 minutes, 95° C. for 10 minutes, 40 cycles of 95° C. for 15 sec, 60° C. for 1 minutes. The 50% effective concentration (EC50) was the drug concentration necessary to achieve an increase in the cycle threshold (CT) of 1 over the projected baseline CT.
Data was obtained for various compounds of the present invention using the methods described in the Example above, and is presented in the table immediately below. Data for replicons 1A, 1AY93H and 2B were obtained using Replicon Assay A and data for replicons 1AQ30D and 1B were obtained using Replicon Assay B.

HCV replicon 1B = assay: Cell-based HCV Replicon Assay B, replicon 1B
Summary of the method: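 Replicon cells seeded in 5% FBS; compounds added 24 h later, then 3 days' incubation. Replicon RNA quantified by real-time RT-PCR with genotype-specific primers/probes (NS5B amplicon for 1b). EC50 = concentration raising CT by 1 over projected baseline.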

[1] = Hepatitis C virus, read-out: 1A Q30D IC50 (nM), replicon 1AQ30D
[2] = read-out: 1A Y93H IC50, replicon 1AY93H
[3] = read-out: 1A Q30D IC50, replicon 1AQ30D

SMILES	IC50 (HCV replicon 1A; Hepatitis C virus)	IC50 (HCV replicon 1AY93H; Hepatitis C virus, read-out: 1A Y93H IC50 (nM), replicon 1AY93H)	IC50 (HCV replicon 2B)	IC50 (HCV replicon 1AQ30D; [1])	IC50 (HCV replicon 1B; Hepatitis C virus)	IC50 (HCV replicon 1AY93H; [2])	IC50 (HCV replicon 1A)	IC50 (HCV replicon 1AQ30D; [3])	IC50 (HCV replicon 1B)
COC(=O)N[C@H](C(=O)N1CCC[C@H]1c1ncc(-c2cc(F)c3c(c2)OC(c2cncs2)n2c-3cc3cc(-c4cnc([C@@H]5CCCN5C(=O)[C@@H](NC(=O)OC)C(C)C)[nH]4)ccc32)[nH]1)C(C)C (single isomer, unassigned) [Compound 2]	3.5 pM	6.95 nM	2310 pM	38.3 nM	30 pM				
COC(=O)N[C@H](C(=O)N1CCC[C@H]1c1ncc(-c2cc(F)c3c(c2)OC(c2cnns2)n2c-3cc3cc(-c4cnc([C@@H]5CCCN5C(=O)[C@@H](NC(=O)OC)C(C)C)[nH]4)ccc32)[nH]1)C(C)C (single isomer, unassigned) [Compound 3]	1.5 pM		140 pM	1.05 nM	2 pM	0.048 nM			
COC(=O)N[C@H](C(=O)N1CCC[C@H]1c1ncc(-c2cc(F)c3c(c2)OC(c2cnc(C4CC4)s2)n2c-3cc3cc(-c4cnc([C@@H]5CCCN5C(=O)[C@@H](NC(=O)OC)C(C)C)[nH]4)ccc32)[nH]1)C(C)C (single isomer, unassigned) [Compound 10]			11 pM	0.097 nM	2 pM	0.0035 nM	1.4 pM		
COC(=O)N[C@H](C(=O)N1CCC[C@H]1c1ncc(-c2cc(F)c3c(c2)OC(c2cnc(OC)s2)n2c-3cc3cc(-c4cnc([C@@H]5CCCN5C(=O)[C@@H](NC(=O)OC)C(C)C)[nH]4)ccc32)[nH]1)C(C)C (single isomer, unassigned) [Compound 14]			15 pM	0.115 nM	2 pM	0.0034 nM	1.4 pM		
COC(=O)N[C@H](C(=O)N1CCC[C@H]1c1ncc(-c2cc(F)c3c(c2)OC(c2cnc(C(F)F)s2)n2c-3cc3cc(-c4cnc([C@@H]5CCCN5C(=O)[C@@H](NC(=O)OC)C(C)C)[nH]4)ccc32)[nH]1)C(C)C (single isomer, unassigned) [Compound 20]	1.5 pM		8 pM	0.01 nM	1 pM	0.0083 nM			
COC(=O)N[C@H](C(=O)N1CCC[C@H]1c1ncc(-c2cc(F)c3c(c2)OC(c2cnc(C4CCCC4)s2)n2c-3cc3cc(-c4cnc([C@@H]5CCCN5C(=O)[C@@H](NC(=O)OC)C(C)C)[nH]4)ccc32)[nH]1)C(C)C (single isomer, unassigned) [Compound 25]	2.5 pM		14 pM	0.07 nM	1 pM	0.0025 nM			
COC(=O)NC(C(=O)N1[C@@H]2C[C@@H]2C[C@H]1c1ncc(-c2ccc3c(c2)cc2n3C(c3cnc(C4CC4)s3)Oc3cc(-c4cnc([C@@H]5CCCN5C(=O)[C@@H](NC(=O)OC)C(C)C)[nH]4)cc(F)c3-2)[nH]1)C(C)(C)F (single isomer, unassigned) [Compound 27]	1.6 pM		9 pM		2 pM	0.0037 nM		0.02 nM	
COC(=O)NC(C(=O)N1[C@@H]2C[C@@H]2C[C@H]1c1ncc(-c2ccc3c(c2)cc2n3C(c3cnc(C4CC4)s3)Oc3cc(-c4cnc([C@@H]5CCCN5C(=O)[C@@H](NC(=O)OC)C(C)C)[nH]4)cc(F)c3-2)[nH]1)C(C)(C)F (single isomer, unassigned) [Compound 28]			204 pM			0.115 nM	1.2 pM	0.908 nM	2 pM
COC(=O)NC(C(=O)N1CCC[C@H]1c1ncc(-c2ccc3c(c2)cc2n3C(c3cnc(C)s3)Oc3cc(-c4cnc([C@@H]5CCCN5C(=O)[C@@H](NC(=O)OC)C(C)C)[nH]4)cc(F)c3-2)[nH]1)C1C[C@@H](C)O[C@@H](C)C1 (single isomer, unassigned) [Compound 30]			14 pM	0.112 nM	3 pM	0.0118 nM	2.8 pM		
COC(=O)N[C@H](C(=O)N1CCC[C@H]1c1ncc(-c2cc(F)c3c(c2)OC(c2cnc(-c4ccc(F)cc4)s2)n2c-3cc3cc(-c4cnc([C@@H]5CCCN5C(=O)[C@@H](NC(=O)OC)C(C)C)[nH]4)ccc32)[nH]1)C(C)C (single isomer, unassigned) [Compound 31]	1.2 pM		4 pM	0.046 nM	1 pM	0.0063 nM			
COC(=O)N[C@H](C(=O)N1CCC[C@H]1c1ncc(-c2cc(F)c3c(c2)OC(c2ncc(-c4ccc(F)cc4)s2)n2c-3cc3cc(-c4cnc([C@@H]5CCCN5C(=O)[C@@H](NC(=O)OC)C(C)C)[nH]4)ccc32)[nH]1)C(C)C (single isomer, unassigned) [Compound 33]	1.7 pM		746 pM		1 pM	1.18 nM		1.67 nM	
COC(=O)N[C@H](C(=O)N1CCC[C@H]1c1ncc(-c2cc(F)c3c(c2)OC(c2ncc(-c4ccc(F)cc4)s2)n2c-3cc3cc(-c4cnc([C@@H]5CCCN5C(=O)[C@@H](NC(=O)OC)C(C)C)[nH]4)ccc32)[nH]1)C(C)C (single isomer, unassigned) [Compound 34]			22 pM			0.0331 nM	2.2 pM	0.144 nM	1 pM
CCc1ncc(C2Oc3cc(-c4cnc([C@@H]5CCCN5C(=O)[C@@H](NC(=O)OC)C(C)C)[nH]4)cc(F)c3-c3cc4cc(-c5cnc([C@@H]6CCCN6C(=O)C(NC(=O)OC)C6C[C@@H](C)O[C@@H](C)C6)[nH]5)ccc4n32)s1 (single isomer, unassigned) [Compound 36]			5 pM	0.038 nM	3 pM	0.004 nM	2.5 pM		
CCc1ncc(C2Oc3cc(-c4cnc([C@@H]5CCCN5C(=O)[C@@H](NC(=O)OC)C(C)C)[nH]4)cc(F)c3-c3cc4cc(-c5cnc([C@@H]6CCCN6C(=O)C(NC(=O)OC)C6CCOC(C)(C)C6)[nH]5)ccc4n32)s1 (single isomer, unassigned) [Compound 40]			6 pM	0.03 nM	3 pM	0.0039 nM	3.5 pM		
COC(=O)N[C@H](C(=O)N1CCC[C@H]1c1ncc(-c2cc(F)c3c(c2)OC(c2cnc(C4CC4)s2)n2c-3c(F)c3cc(-c4cnc([C@@H]5CCCN5C(=O)[C@@H](NC(=O)OC)C5CCOCC5)[nH]4)ccc32)[nH]1)C(C)C (single isomer, unassigned) [Compound 41]	1.7 pM		40 pM		2 pM	0.126 nM		1.01 nM	
COC(=O)N[C@H](C(=O)N1CCC[C@H]1c1ncc(-c2cc(F)c3c(c2)OC(c2cnc(C4CC4)s2)n2c-3c(F)c3cc(-c4cnc([C@@H]5CCCN5C(=O)[C@@H](NC(=O)OC)C5CCOCC5)[nH]4)ccc32)[nH]1)C(C)C (single isomer, unassigned) [Compound 42]			17 pM			0.0141 nM	1.6 pM	0.123 nM	2 pM
COC(=O)N[C@H](C(=O)N1CCC[C@H]1c1ncc(-c2cc(F)c3c(c2)OC(c2ncc(-c4ccc(C#N)cc4)s2)n2c-3cc3cc(-c4cnc([C@@H]5CCCN5C(=O)[C@@H](NC(=O)OC)C(C)C)[nH]4)ccc32)[nH]1)C(C)C (single isomer, unassigned) [Compound 43]	2.3 pM		4 pM		2 pM	0.0081 nM		0.077 nM	
COC(=O)N[C@H](C(=O)N1CCC[C@H]1c1ncc(-c2cc(F)c3c(c2)OC(c2cnc(-c4ccc(OC)cc4)s2)n2c-3cc3cc(-c4cnc([C@@H]5CCCN5C(=O)[C@@H](NC(=O)OC)C(C)C)[nH]4)ccc32)[nH]1)C(C)C (single isomer, unassigned) [Compound 45]	1.8 pM		11 pM	0.072 nM	1 pM	0.006 nM			
COC(=O)N[C@H](C(=O)N1CCC[C@H]1c1ncc(-c2cc(C)c3c(c2)OC(c2ncc(C4CC4)s2)n2c-3cc3cc(-c4cnc([C@@H]5CCCN5C(=O)[C@@H](NC(=O)OC)C5C[C@@H](C)O[C@@H](C)C5)[nH]4)ccc32)[nH]1)C(C)C (single isomer, unassigned) [Compound 47]	2 pM		58 pM		3 pM	1.12 nM		2.19 nM	

— US9555038B2, “Heterocycle-substituted tetracyclic compounds and methods of use thereof for the treatment of viral diseases” (Merck Sharp & Dohme Corp., priority 2013, dated 2017)
